{"source": "patent US12622965B2", "about": "“Therapeutical tools and methods using temperature-sensitive receptors for treating blindness” (FRIEDRICH MIESCHER INSTITUTE FOR BIOMEDICAL RESEARCH, priority 2020, dated 2026)", "tested_on": "HEK cells expressing TRPV1.459-6x-His, TRPV1.465-6x-His or untagged TRPV1", "assay": "whole cell voltage clamp in HEK cells expressing TRPV1 variants, activated by capsaicin", "type": "cell-based", "details": "TRPV1 agonist capsaicin 2.5 μM bath applied; voltage clamp −60 mV; mean±s.e.m", "description": "First, they developed a system based on rat TRPV1 channels and gold nanorods with absorption maxima at 915 nm. 915 nm was selected to ensure low water absorption. […] To measure if tagged channels are functional, they performed whole cell voltage clamp in HEK cells expressing TRPV1.459-6x-His, TRPV1.465-6x-His or untagged TRPV1 while activating the channels by TRPV1 agonist capsaicin. The size of evoked currents were similar between TRPV1.465-6x-His and TRPV1 (Mann-Whitney U test, P=0.8551; TRPV1.465-6x-His, 1633±164 pA, […] 15 cells; TRPV1, 1766±276 pA, n=14 cells; mean±s.e.m), but less in TRPV1.459-6x-His (Mann-Whitney U test, P=0.0207; TRPV1.459-6x-His, 976±118 pA, n=19 cells; mean±s.e.m). Therefore, they used TRPV1.465-6x-His (rTRPV1) in subsequent experiments.\nFor HEK293T cell experiments, cells were maintained at 37° C. on poly-D-lysine/laminin coated coverslips (GG-12-Laminin, Neuvitro) in DMEM supplemented with 10% fetal bovine serum. Cells were transfected with plasmids containing TRP variants using branched PEI. Cells were perfused in oxygenated Ringer's medium containing 110 mM NaCl, 2.5 mM KCl, 1 mM CaCl2, 1.6 mM MgCl2, 10 mM D-glucose and 22 mM NaHCO3 at ˜36° C. for the duration of the experiment. […] Data was analyzed offline using MATLAB (MathWorks)."}
{"substance": "TRPV1: untagged rat TRPV1 channel [reference compound]", "values": [{"measurement": "size of evoked currents", "result": "1766±276", "unit": "pA"}]}
